From US10471083B2, “Formulations of aminoglycoside and fosfomycin in combination for treatment of ventilator associated pneumonia (VAP) and ventilator associated tracheal (VAT) bronchitis” (SAVARA INC., priority 2011, dated 2019)
≈ marks a conversion by molar mass, not a printed value.

Columns and labels:
[1] = design: species or system beagle dogs; details: dog, in vivo
From the text: Toxicokinetic parameters were estimated using WinNonlin pharmacokinetic software version 5.2.1 (Pharsight Corp.). A non-compartmental approach consistent with the extravascular route of administration was used for parameter estimation. All parameters were generated from individual amikacin and fosfomycin concentrations in plasma from Days 1 and 7.

MRSA = details: data from the 1980's; cited from earlier work
pseudomonas isolates = details: most pseudomonas isolates; cited from earlier work
[2] = Aerosol particle size distribution (MMAD) in the dog study; format: physicochemical; details: aerosol of the combined formulation, analytical methods
Pseudomonas = details: cited from earlier work
[3] = test system: Stenotrophomonas maltophilia; details: cited from earlier work
Pseudomonas aeruginosa = details: cited from earlier work

| Compound | accumulation following repeat dosing [1] | MIC90 (MRSA) [µg/mL] | MIC90 (pseudomonas isolates) [µg/mL] | particle size distribution (MMAD) [2] [μm] | MIC90 (Pseudomonas) [µg/mL] | MIC90 [3] [µg/mL] | factor of increase of in vitro activity of amikacin by fosfomycin (Pseudomonas aeruginosa) |
| --- | --- | --- | --- | --- | --- | --- | --- |
| C[C@@H]1O[C@@H]1P(=O)(O)O [fosfomycin] | no clear indication of accumulation | 32 (≈ 232 µM) | – | – | – | – | – |
| NC[C@H]1O[C@H](O[C@H]2[C@H](O)[C@@H](O[C@H]3O[C@H](CO)[C@@H](O)[C@H](N)[C@H]3O)[C@H](N)C[C@@H]2N)[C@H](N)C[C@@H]1O [tobramycin] | – | – | 64 (≈ 137 µM) | – | – | – | – |
| NCC[C@H](O)C(=O)N[C@@H]1C[C@H](N)[C@@H](O[C@H]2O[C@H](CN)[C@@H](O)[C@H](O)[C@H]2O)[C@H](O)[C@H]1O[C@H]1O[C@H](CO)[C@@H](O)[C@H](N)[C@H]1O [amikacin] | no clear indication of accumulation | – | – | 2.80 | 32 (≈ 54.6 µM) | > 64 | 64 |
